Measurements from patent publication US12037411B2, “Antibodies, and bispecific antigen-binding molecules that bind HER2 and/or APLP2, conjugates, and uses thereof” (Regeneron Pharmaceuticals, Inc., priority 2018, dated 2024).

Tests used:
HER2 in T47D cells = assay: HER2 turnover after cycloheximide treatment (western blot); format: cell-based, human; conditions: for Normalized HER2 expression: 50 ug/ml
Description: (§1) Additionally, the degradation rates of APLP2 and HER2 was tested on T47D cells. For the assay, T47D cells were plate at 10^6 cells/well in 6 well plates (Corning #3516). The cells were allowed to grow overnight at 37° C. in 5% CO2 in media consisting of RPMI 1640+10% FBS+1 mM sodium pyruvate+10 mM HEPES+10 ug/mL Insulin+5 mL Penicillin/Streptomycin/Glutamine. The following day, cells were treated with 50 ug/ml cycloheximide (Sigma #C4859-1ML) for 0, 0.5, 1.5, 2.5, 3.5, 4.5 and 5.5 hours. After the incubation, cells were washed once with 1 ml of DPBS/CM, and subsequently placed on ice and then the DPBS/CM was replaced with 800 uL of lysis buffer [1×RIPA (Boston Bioproducts, Cat #BP-116)+Protease inhibitor (Thermo Fisher, 1861280), cells were scraped and lysates were transferred to 1.5 ml Eppendorf tubes. Afterwards, the samples were sonicated with 25 pulses, 1 sec each at 50% power. Afterwards, the samples were frozen at −20° C. The samples were later thawed and 52 ul of each sample was mixed with 20 ul 4× Laemmli (Invitrogen, NP0007)+8 uL 10× Reducing agent (Invitrogen, Cat #NP0009)]. Samples were boiled at 95° C. for 10 minutes, centrifuged at 14000 RPM for 10 minutes at room temperature. 40 uL of each sample was loaded into three Wedged 4-20% TRIS-Glycine gels (Invitrogen, XPO4125BOX) and ran at 150V. The gels were then transferred into two PVDF membranes (ThermoFisher, IB24001) with iBlot2 dry blotting system (ThermoFisher, 1321001). The membranes were then blocked with 5% milk (BioRad, Cat #170-6404) in TBS for 3 hours at room temperature. Primary antibodies, rabbit-anti-HER2 antibody (Dako, Cat #A048529) or rabbit-anti-APLP2 antibody (abcam, Cat #ab140624) in 2.5% Milk+0.1% Tween (Sigma, Cat #P8074) in TRIS buffered saline (TBS; ThermoFisher, Cat #28376), were then added to the membranes and incubated at 4° C. overnight. The membranes were then washed 3 times with TBS for 5 minutes at room temperature. After, anti-rabbit-HRP antibodies (Promega, #W4011) and anti-actin-HRP antibody (Santa Cruz, Cat #sc-47779) in 2.5% Milk+0.1% Tween in TBS were added to the membranes and incubated at room temperature for 1 hour. The membranes were then washed 2 times with TBS+0.1% Tween at room temperature for 5 minutes, and then washed 2 more times with TBS room temperature for 5 minutes. The blot was then developed with ECL Detection Reagent (GE healthcare, Cat #RPN2106) and imaged with Azure C300 imager. Band quantification (mean fluorescence intensity minus background) was performed using ImageJ. Table 11 summarizes HER2, APLP, or T47D cells after cycloheximide (CHX) treatment normalized to cells having no CHX contact.

APLP2 in T47D cells = assay: APLP2 turnover after cycloheximide treatment (western blot); format: cell-based, human; conditions: for Normalized APLP2 expression: 50 ug/ml
Description: as §1

C[C@@H]1C[C@@H]([C@H](O)CC2CC(=O)NC(=O)C2)C(=O)[C@@H](C)C1 [CHX, cycloheximide]
Normalized HER2 expression (HER2 in T47D cells; CHX treatment 0.5 hours): 57% | Normalized HER2 expression (HER2 in T47D cells; CHX treatment 1.5 hours): 78% | Normalized HER2 expression (HER2 in T47D cells; CHX treatment 2.5 hours): 68% | Normalized HER2 expression (HER2 in T47D cells; CHX treatment 3.5 hours): 64% | Normalized HER2 expression (HER2 in T47D cells; CHX treatment 4.5 hours): 88% | Normalized HER2 expression (HER2 in T47D cells; CHX treatment 5.5 hours): 78% | HER2 degradation (HER2 in T47D cells; after 5.5 hours): 22% | Normalized APLP2 expression (APLP2 in T47D cells; CHX treatment 0.5 hours): 41% | Normalized APLP2 expression (APLP2 in T47D cells; CHX treatment 1.5 hours): 22% | Normalized APLP2 expression (APLP2 in T47D cells; CHX treatment 2.5 hours): 9% | Normalized APLP2 expression (APLP2 in T47D cells; CHX treatment 3.5 hours): 7% | Normalized APLP2 expression (APLP2 in T47D cells; CHX treatment 4.5 hours): 8% | Normalized APLP2 expression (APLP2 in T47D cells; CHX treatment 5.5 hours): 6% | APLP2 degradation (APLP2 in T47D cells; after 5.5 hours): 94% | APLP2 degraded (APLP2 in T47D cells; in 1.5 hours): Eighty-eight
